Laboratory results published in patent publication US11040981B2, “Pyrrolotriazine compounds and methods of inhibiting TAM kinases” (Syros Pharmaceuticals, Inc., priority 2017, dated 2021).

Experiments:
MERTK = biological target: T1, MERTK (Homo sapiens, UniProt Q12866); assay: TR-FRET kinase activity assay, MERTK; format: biochemical; conditions: for IC50: TR-FRET activity assay, ATP at Km, 60 minutes, read-out: Mer IC50
T1 sequence (Q12866 21-999): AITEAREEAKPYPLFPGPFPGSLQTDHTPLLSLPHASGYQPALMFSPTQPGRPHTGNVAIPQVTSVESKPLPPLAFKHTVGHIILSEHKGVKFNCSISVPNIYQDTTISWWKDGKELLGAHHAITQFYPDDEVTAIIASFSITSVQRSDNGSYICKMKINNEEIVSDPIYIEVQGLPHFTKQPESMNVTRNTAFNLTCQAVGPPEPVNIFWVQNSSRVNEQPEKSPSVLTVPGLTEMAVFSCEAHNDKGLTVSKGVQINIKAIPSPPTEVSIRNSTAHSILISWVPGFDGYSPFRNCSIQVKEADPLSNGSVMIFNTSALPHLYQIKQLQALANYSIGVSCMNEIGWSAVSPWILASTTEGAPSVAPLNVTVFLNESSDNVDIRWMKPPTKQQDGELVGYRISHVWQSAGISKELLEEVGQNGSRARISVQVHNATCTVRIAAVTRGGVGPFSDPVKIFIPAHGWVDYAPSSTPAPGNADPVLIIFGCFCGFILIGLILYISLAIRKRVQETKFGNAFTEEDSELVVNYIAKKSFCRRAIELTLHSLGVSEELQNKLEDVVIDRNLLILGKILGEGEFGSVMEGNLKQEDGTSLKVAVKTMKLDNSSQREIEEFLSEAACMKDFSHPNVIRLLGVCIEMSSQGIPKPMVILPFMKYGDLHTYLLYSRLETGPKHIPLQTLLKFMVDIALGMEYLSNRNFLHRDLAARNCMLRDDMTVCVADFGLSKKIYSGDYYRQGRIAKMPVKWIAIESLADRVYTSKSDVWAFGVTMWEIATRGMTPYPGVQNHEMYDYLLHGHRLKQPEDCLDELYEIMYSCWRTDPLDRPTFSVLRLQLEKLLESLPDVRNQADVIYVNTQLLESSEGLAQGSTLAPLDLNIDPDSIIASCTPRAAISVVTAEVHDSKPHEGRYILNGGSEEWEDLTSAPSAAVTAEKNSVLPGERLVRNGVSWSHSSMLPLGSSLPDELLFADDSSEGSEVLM
Procedure, shortened: (§1)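 Inhibition is measured as loss of phospho-peptide formation: kinase, fluorescent tyrosine peptide and compound are combined, ATP is added at Km, and the reaction proceeds 60 min at RT in pH 7.5 HEPES buffer. An EDTA stop and Eu-labelled phospho-specific antibody allow TR-FRET detection for IC50 fitting.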

TYRO3 = biological target: T2, TYRO3 (Homo sapiens, UniProt Q06418); assay: TR-FRET kinase activity assay, TYRO3; format: biochemical; conditions: ATP at Km, 60 minutes
T2 sequence (Q06418 41-890): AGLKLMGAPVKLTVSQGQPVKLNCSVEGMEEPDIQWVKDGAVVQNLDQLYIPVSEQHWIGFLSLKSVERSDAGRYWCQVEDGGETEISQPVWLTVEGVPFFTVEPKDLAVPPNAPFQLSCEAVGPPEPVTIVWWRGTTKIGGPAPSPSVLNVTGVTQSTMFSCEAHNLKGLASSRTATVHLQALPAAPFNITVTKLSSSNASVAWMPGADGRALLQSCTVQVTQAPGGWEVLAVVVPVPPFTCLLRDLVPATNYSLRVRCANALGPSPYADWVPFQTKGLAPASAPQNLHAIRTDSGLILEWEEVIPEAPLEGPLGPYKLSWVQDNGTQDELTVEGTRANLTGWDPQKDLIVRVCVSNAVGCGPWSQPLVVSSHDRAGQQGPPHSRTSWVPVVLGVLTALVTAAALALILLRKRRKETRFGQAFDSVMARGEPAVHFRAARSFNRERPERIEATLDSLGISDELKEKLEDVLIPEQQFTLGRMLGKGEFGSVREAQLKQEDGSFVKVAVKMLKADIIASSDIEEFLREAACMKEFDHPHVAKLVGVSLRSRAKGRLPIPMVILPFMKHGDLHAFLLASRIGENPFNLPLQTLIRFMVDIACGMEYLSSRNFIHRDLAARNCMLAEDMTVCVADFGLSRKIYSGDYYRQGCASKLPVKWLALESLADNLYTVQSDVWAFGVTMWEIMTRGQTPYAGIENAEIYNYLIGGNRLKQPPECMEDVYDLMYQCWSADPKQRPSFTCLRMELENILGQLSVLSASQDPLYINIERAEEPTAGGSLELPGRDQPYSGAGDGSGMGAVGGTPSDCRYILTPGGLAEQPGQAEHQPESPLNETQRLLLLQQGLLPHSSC
Procedure, shortened: as §1

[1] = ratio calculated as FLT3 IC50/Mer IC50
[2] = ratio of Mer to FLT3: FLT3 IC50/Mer IC50

Row | SMILES | IC50 (MERTK) [nM] | FLT3/Mer ratio (FLT3 IC50/Mer IC50) (MERTK; [1]) | IC50 (TYRO3) [nM] | FLT3/Mer ratio (FLT3 IC50/Mer IC50) (MERTK; [2])
1 | CCN(C(=O)N1CCN(c2cc(-c3cc([C@H]4CC[C@H](O)CC4)n4nc(N[C@@H](C)COC)ncc34)ccn2)CC1)C(C)C [Compound 514] | ≤ 100 | +++ (“+++” represents a ratio of >100) | ≤ 100 | –
2 | COCC(C)Nc1ncc2c(-c3ccc(CN4CCCC4)cc3)cc(C3CCC(O)CC3)n2n1 (stereo not drawn) [Compound 142] | ≤ 100 | – | ≤ 100 | +++ (“+++” represents a ratio of >100)
3 | COC[C@H](C)Nc1ncc2c(-c3cnn(C4COC4)c3)cc(C3CCC(F)(F)CC3)n2n1 [Compound 515] | ≤ 100 | +++ (“+++” represents a ratio of >100) | ≤ 100 | –
4 | COC[C@H](C)Nc1ncc2c(-c3ccnc(N4CCOCC4)c3)cc([C@H]3CC[C@@H](O)CC3)n2n1 [Compound 546] | ≤ 100 | +++ (“+++” represents a ratio of >100) | ≤ 100 | –
5 | COC[C@H](C)Nc1ncc2c(-c3ccnc(N4CCN(CC5COC5)CC4)c3)cc([C@H]3CC[C@H](O)CC3)n2n1 [Compound 512] | ≤ 100 | +++ (“+++” represents a ratio of >100) | ≤ 100 | –
6 | COC[C@H](C)Nc1ncc2c(-c3cnn(C(C)(C)C(=O)N4CCOC(C(C)(C)O)C4)c3)cc([C@H]3CC[C@H](O)CC3)n2n1 (stereo partly drawn) [Compound 586] | ≤ 100 | +++ (“+++” represents a ratio of >100) | ≤ 100 | –
7 | COCC(C)Nc1ncc2c(-c3ccc(C(C)N4CCOCC4)cc3)cc(C3CCC(O)CC3)n2n1 (stereo not drawn) [Compound 143] | ≤ 100 | – | ≤ 100 | ++ (“++” represents a ratio of between 10 and 100)
8 | COC[C@H](C)Nc1ncc2c(-c3ccnc(N4CCO[C@H](C(C)(C)O)C4)c3)cc([C@H]3CC[C@H](O)CC3)n2n1 [Compound 558] | ≤ 100 | +++ (“+++” represents a ratio of >100) | ≤ 100 | –
9 | COC[C@H](C)Nc1ncc2c(-c3ccnc(C4COC4)c3)cc([C@H]3CC[C@H](O)CC3)n2n1 [Compound 566] | ≤ 100 | +++ (“+++” represents a ratio of >100) | ≤ 100 | –
10 | CC(COc1ccccc1)Nc1ncc2c(-c3cnn(C4COC4)c3)cc([C@H]3CC[C@H](O)CC3)n2n1 (mixture of isomers) [Compound 528] | ≤ 100 | +++ (“+++” represents a ratio of >100) | ≤ 100 | –
11 | CC(C)(O)C1CN(c2cc(-c3cc([C@H]4CC[C@H](O)CC4)n4nc(NCCOC(F)F)ncc34)ccn2)CCO1 (stereo partly drawn) [Compound 557] | ≤ 100 | +++ (“+++” represents a ratio of >100) | ≤ 100 | –
12 | COC[C@H](C)Nc1ncc2c(-c3cnn(C(C)(C)C(=O)N4CCOC(C(C)(C)O)C4)c3)cc([C@H]3CC[C@H](O)CC3)n2n1 (stereo partly drawn) [Compound 556] | ≤ 100 | +++ (“+++” represents a ratio of >100) | ≤ 100 | –
13 | C[C@@H](CC(F)(F)F)Nc1ncc2c(-c3cncc([S@](C)(=N)=O)c3)cc([C@H]3CC[C@H](O)CC3)n2n1 [Compound 582] | ≤ 100 | +++ (“+++” represents a ratio of >100) | ≤ 100 | –
14 | COC[C@H](C)Nc1ncc2c(-c3cnn(C(C)(C)C(=O)N4CCOCC4)c3)cc([C@H]3CC[C@@](C)(O)CC3)n2n1 [Compound 561] | ≤ 100 | +++ (“+++” represents a ratio of >100) | ≤ 100 | –
15 | COC[C@H](C)Nc1ncc2c(-c3ccnc(N4CCOC(C(C)(C)O)C4)c3)cc([C@H]3CC[C@H](O)CC3)n2n1 (stereo partly drawn) [Compound 534] | ≤ 100 | +++ (“+++” represents a ratio of >100) | ≤ 100 | –
16 | Cc1nnc(C(C)(C)n2cc(-c3cc([C@H]4CC[C@H](O)CC4)n4nc(N[C@@H](C)COC(F)F)ncc34)cn2)o1 [Compound 517] | ≤ 100 | +++ (“+++” represents a ratio of >100) | ≤ 100 | –
17 | C[C@@H](CC(F)(F)F)Nc1ncc2c(-c3ccc([S@](C)(=N)=O)nc3)cc([C@H]3CC[C@H](O)CC3)n2n1 [Compound 540] | ≤ 100 | +++ (“+++” represents a ratio of >100) | ≤ 100 | –
18 | C[C@H](Nc1ncc2c(-c3cnn(C(C)(C)C(=O)N4CCOCC4)c3)cc([C@H]3CC[C@H](O)CC3)n2n1)C(F)(F)F [Compound 537] | ≤ 100 | +++ (“+++” represents a ratio of >100) | ≤ 100 | –
19 | COC[C@H](C)Nc1ncc2c(-c3cnn(C(C)(C)C(=O)N4CC[C@@H](O)C4)c3)cc([C@H]3CC[C@H](O)CC3)n2n1 [Compound 555] | ≤ 100 | +++ (“+++” represents a ratio of >100) | ≤ 100 | –
20 | COC[C@H](C)Nc1ncc2c(-c3ccc(CN4CCN(C)CC4)nc3)cc([C@H]3CC[C@H](O)CC3)n2n1 [Compound 565] | ≤ 100 | +++ (“+++” represents a ratio of >100) | ≤ 100 | –
21 | CCCCC[C@H](C)Nc1ncc2c([C@H]3CC[C@@H](C(=O)N4CCS(=O)(=O)CC4)CC3)cc([C@H]3CC[C@H](O)CC3)n2n1 [Compound 137] | ≤ 100 | – | ≤ 100 | +++ (“+++” represents a ratio of >100)
22 | C[C@@H](CC(F)(F)F)Nc1ncc2c(-c3ccc([S@@](C)(=N)=O)nc3)cc([C@H]3CC[C@H](O)CC3)n2n1 [Compound 541] | ≤ 100 | ++ (“++” represents a ratio of between 10 and 100) | ≤ 100 | –
23 | COC[C@H](C)Nc1ncc2c(-c3cnn(C(C)(C)C(=O)N4C[C@@H](C)N[C@@H](C)C4)c3)cc([C@H]3CC[C@@H](O)CC3)n2n1 [Compound 591] | ≤ 100 | +++ (“+++” represents a ratio of >100) | ≤ 100 | –
